Experimental data taken from patent publication US20210068395A1, “METHODS OF APPLYING ONE OR MORE CERTAIN HETEROARYL-1,2,4-TRIAZOLE AND HETEROARYL-TETRAZOLE COMPOUNDS TO CONTROL DAMAGE ON PLANTS, PROPAGATION MATERIAL THEREOF, AND PLANT DERIVED PRODUCTS” (SYNGENTA CROP PROTECTION AG, priority 2018, published 2021).

Legend:
Type in all cases: in vivo
[1] = system: Euschistus heros (Neotropical Brown Stink Bug); experiment: Euschistus heros feeding/contact activity; details: 120 h, application rate 200 ppm, N2 nymphs on soybean leaves, 5 days after infestation, read-out: control in at least one of the two categories (mortality or growth inhibition)
Experimental: Soybean leaves on agar in 24-well microtiter plates were sprayed with aqueous test solutions prepared from 10,000 ppm DMSO stock solutions. After drying the leaves were infested with N2 nymphs. The samples were assessed for mortality and growth inhibition 5 days after infestation.

[2] = system: Frankliniella occidentalis (Western Flower Thrips); experiment: Frankliniella occidentalis feeding/contact activity; details: foliar, 168 h, application rate 200 ppm, mixed ages on sunflower leaf discs, 7 days after infestation
Experimental: (§1) Sunflower leaf discs were placed on agar in 24-well microtiter plates and sprayed with aqueous test solutions prepared from 10,000 DMSO stock solutions. After drying the leaf discs were infested with a Frankliniella population of mixed ages. The samples were assessed for mortality 7 days after infestation.

[3] = system: Nilaparvata lugens (Brown Plant Hopper); experiment: Nilaparvata lugens larvicide, feeding/contact; details: 168 h, test rate 200 ppm, N3 nymphs on sprayed rice plants, 7 days after treatment, read-out: control in at least one of the two categories (mortality or growth inhibition)
Experimental: Rice plants were treated with the diluted test solutions in a spray chamber. After drying plants were infested with ˜20 N3 nymphs. 7 days after the treatment samples were assessed for mortality and growth inhibition.

[4] = system: Carpocapsa (Cydia) Pomonella (Codling Moth); experiment: Carpocapsa (Cydia) pomonella larvicide, feeding/contact; details: 336 h, test rate 50 ppm, L1 larvae on diet cubes, 14 days after infestation, read-out: control in at least one of the two categories (mortality or growth inhibition)
Experimental: Diet cubes coated with paraffin were sprayed with diluted test solutions in an application chamber. After drying off the treated cubes (10 replicates) were infested with 1 L1 larvae. Samples were incubated at 26-27° C. and checked 14 days after infestation for mortality and growth inhibition.

[5] = system: Myzus persicae (Green Peach Aphid); experiment: Myzus persicae feeding activity (sucrose solution, Parafilm); details: 120 h, test rate 12.5 ppm, in sucrose solution, 5 days after infestation
Experimental: Test compounds prepared from 10,000 ppm DMSO stock solutions were applied by pipette into 24-well microtiter plates and mixed with sucrose solution. The plates were closed with a stretched Parafilm. A plastic stencil with 24 holes was placed onto the plate and infested pea seedlings were placed directly on the Parafilm. The infested plate was closed with a gel blotting paper and another plastic stencil and then turned upside down. The samples were assessed for mortality 5 days after infestation.

[6] = system: Myzus persicae (Green Peach Aphid); experiment: Myzus persicae feeding/contact activity; details: foliar, 144 h, application rate 200 ppm, sunflower leaf discs sprayed, 6 days after infestation
Experimental: Sunflower leaf discs were placed onto agar in a 24-well microtiter plate and sprayed with aqueous test solutions prepared from 10,000 ppm DMSO stock solutions. After drying, the leaf discs were infested with an aphid population of mixed ages. The samples were assessed for mortality 6 days after infestation.

[7] = system: Diabrotica balteata (corn root worm); experiment: Diabrotica balteata (corn root worm), sprayed maize sprouts; details: 96 h, application rate 200 ppm, L2 larvae, 4 days after infestation, read-out: control in at least one of the two categories (mortality or growth inhibition)
Experimental: Maize sprouts placed onto an agar layer in 24-well microtiter plates were treated with aqueous test solutions prepared from 10,000 ppm DMSO stock solutions by spraying. After drying, the plates were infested with L2 larvae (6 to 8 per well). The samples were assessed for mortality and growth inhibition in comparison to untreated samples 4 days after infestation.

[8] = system: Nilaparvata lugens (Brown Plant Hopper); experiment: Nilaparvata lugens larvicide, systemic into water; details: 168 h, test rate 12.5 ppm, into nutritive solution of rice plants, N3 nymphs, 7 days after infestation, read-out: control in at least one of the two categories (mortality or growth inhibition)
Experimental: Rice plants cultivated in a nutritive solution were treated with the diluted test solutions into nourishing cultivation system. 1 day after application plants were infested with ˜20 N3 nymphs. 7 days after infestation samples were assessed for mortality and growth inhibition.

[9] = system: Aphis craccivora (Black Bean Aphid); experiment: Aphis craccivora mixed population, contact/feeding; details: 120 h, test rate 200 ppm, pea seedlings sprayed, 5 days after treatment
Experimental: Pea seedlings infested with mixed aged aphid population were treated with diluted test solutions in a spray chamber. 5 days after treatment, samples were assessed for mortality.

[10] = system: Thrips tabaci (Onion thrips); experiment: Thrips tabaci feeding/contact activity; details: foliar, 144 h, application rate 200 ppm, sunflower leaf discs, 6 days after infestation, read-out: control in at least one of the two categories (mortality or anti-feeding)
Experimental: as §1, with “10,000 ppm” for “10,000”, “thrips” for “Frankliniella”, “mortality, and anti-feeding 6” for “mortality 7”

[11] = system: Spodoptera littoralis (Egyptian Cotton Leaf Worm); experiment: Spodoptera littoralis feeding/contact activity; details: foliar, 72 h, application rate 200 ppm, L1 larvae on cotton leaf discs, 3 days after infestation, read-out: control in at least one of the three categories (mortality or growth inhibition or anti-feeding)
Experimental: Cotton leaf discs were placed onto agar in 24-well microtiter plates and sprayed with aqueous test solutions prepared from 10,000 ppm DMSO stock solutions. After drying the leaf discs were infested with five L1 larvae. The samples were assessed for mortality, anti-feeding and growth inhibition 3 days after infestation.

[12] = system: Plutella xylostella (Diamond Back Moth); experiment: Plutella xylostella feeding/contact activity, 24-well artificial diet; details: 192 h, application rate 200 ppm, 24-well artificial diet, 8 days after infestation, read-out: control in at least one of the two categories (mortality or growth inhibition)
Experimental: 24-well microtiter plates with artificial diet were treated with aqueous test solutions prepared from 10,000 ppm DMSO stock solutions by pipetting. After drying, Plutella eggs were pipetted through a plastic stencil onto a gel blotting paper and the plate was closed with it. The samples were assessed for mortality and growth inhibition in comparison to untreated samples 8 days after infestation.

[13] = system: Plutella xylostella (Diamond Back Moth); experiment: Plutella xylostella feeding/contact activity, 96-well artificial diet; details: 216 h, application rate 500 ppm, 9 days after infestation
Experimental: 1, 2, 3, 4, 17, 19, 23, 26, 39, 41, 42, 54, 55, 56 Plutella xylostella (Diamond Back Moth):Feeding/Contact Activity 96-well microtiter plates containing artificial diet were treated with aqueous test solutions, prepared from 10,000 ppm DMSO stock solutions, by a liquid handling robot. After drying, eggs (˜30 per well) were infested onto a netted lid which was suspended above the diet. The eggs hatch and L1 larvae move down to the diet. The samples were assessed for mortality 9 days after infestation.

[14] = system: Aphis craccivora (Black Bean Aphid); experiment: Aphis craccivora mixed population, systemic/feeding; details: 120 h, test rate 12.5 ppm, pea seedlings in test solutions, 5 days
Experimental: Pea seedlings infested with mixed aged aphid population, were put into glass vials with test solutions. 5 days later, samples were assessed for mortality.

CC(c1ncnn1-c1ncccn1)N(C)C(=O)c1cc(C(F)(F)F)cc(C(F)(F)F)c1 (stereo not drawn) [Compound 1]
≥ 80%: percent control (mortality or growth inhibition) at 200 ppm [1] | mortality at 200 ppm [2] | percent control (mortality or growth inhibition) at 200 ppm [3] | percent control (mortality or growth inhibition) at 50 ppm [4] | mortality at 12.5 ppm [5] | mortality at 200 ppm [6] | percent control (mortality or growth inhibition) at 200 ppm [7] | percent control (mortality or growth inhibition) at 12.5 ppm [8] | mortality at 200 ppm [9] | percent control (mortality, anti-feedant effect or growth inhibition) at 200 ppm [10] | percent control (mortality, anti-feedant effect or growth inhibition) at 200 ppm [11] | percent control (mortality or growth inhibition) at 200 ppm [12] | mortality at 500 ppm [13] | mortality at 12.5 ppm [14]

CC(NC(=O)c1cc(C(F)(F)F)cc(C(F)(F)F)c1)c1ncnn1-c1ncccn1 (stereo not drawn) [Compound 4]
≥ 80%: percent control (mortality or growth inhibition) at 200 ppm [1] | mortality at 200 ppm [2] | percent control (mortality or growth inhibition) at 200 ppm [3] | percent control (mortality or growth inhibition) at 50 ppm [4] | mortality at 12.5 ppm [5] | mortality at 200 ppm [6] | percent control (mortality or growth inhibition) at 200 ppm [7] | percent control (mortality or growth inhibition) at 12.5 ppm [8] | mortality at 200 ppm [9] | percent control (mortality, anti-feedant effect or growth inhibition) at 200 ppm [10] | percent control (mortality, anti-feedant effect or growth inhibition) at 200 ppm [11] | percent control (mortality or growth inhibition) at 200 ppm [12] | mortality at 500 ppm [13] | mortality at 12.5 ppm [14]

CC(c1ncnn1-c1ncccn1)N(CC1CC1)C(=O)c1cc(C(F)(F)F)cc(C(F)(F)F)c1 (stereo not drawn) [Compound 3]
≥ 80%: percent control (mortality or growth inhibition) at 200 ppm [1] | mortality at 200 ppm [2] | percent control (mortality or growth inhibition) at 200 ppm [3] | percent control (mortality or growth inhibition) at 50 ppm [4] | mortality at 12.5 ppm [5] | mortality at 200 ppm [6] | percent control (mortality or growth inhibition) at 200 ppm [7] | percent control (mortality or growth inhibition) at 12.5 ppm [8] | mortality at 200 ppm [9] | percent control (mortality, anti-feedant effect or growth inhibition) at 200 ppm [10] | percent control (mortality, anti-feedant effect or growth inhibition) at 200 ppm [11] | percent control (mortality or growth inhibition) at 200 ppm [12] | mortality at 500 ppm [13] | mortality at 12.5 ppm [14]
